Read-outs that look alike come from different tables or passages of the source.
Experiments:
[1] = system: RL Human Follicular Lymphoma Cell Line; experiment: Alamar blue cytotoxicity assay in RL cells; type: cell-based; details: 72 h incubation, read-out: Bcl RL Alamar Blue IC50
Procedure: When RL-cells are exposed to isoxazolidine compounds of the present invention, the inhibitors show a dose-dependent cell-killing in the Alamar blue cytoxicity assay with IC50 values of from about 100 μM to about 1 μM (See Examples). When Panc1 cells are exposed to the isoxazolidine compounds of the present invention in combination with camptothecin, the inhibitors show a synergistic dose-dependent cell killing in the propidium iodide exclusion cell survival assay with IC50 values of from about 100 μM to about 1 μM (See Examples).
• 1) Using 96 well plates, compounds were serially diluted in DMSO from 9 mM to 4 uM • 2) Assay plates were prepared by diluting samples 310 fold into 150 ul of medium containing 30,000 cells/well resulting in a final DMSO concentration of 0.3% and a concentration range from 29 uM to 0.013 uM for each compound. • 3) Plates were incubated at 37 C and 5% CO2 for 72 h • 4) After 72 h, Alamar blue reagent was added to each well and plates read according to manufacturer's instructions
In vitro cytotoxicity data for RL cells is presented below for various compounds of the invention.

Bcl-xL = Bcl-xL (Homo sapiens, UniProt Q07817); experiment: Bcl-xL binding affinity analysis (fluorescence polarization binding assay); parameters: scale not given here
Procedure, shortened: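 In vitro fluorescence polarization binding assay measuring compound binding to human Bcl-xL.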

Bcl-2 = Bcl-2 (Homo sapiens, UniProt P10415); experiment: Bcl-2 binding affinity analysis (fluorescence polarization binding assay)
Procedure, shortened: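 Binding to human Bcl-2 quantified in vitro by a fluorescence polarization assay.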

Sequence of Bcl-2 (P10415 whole entry): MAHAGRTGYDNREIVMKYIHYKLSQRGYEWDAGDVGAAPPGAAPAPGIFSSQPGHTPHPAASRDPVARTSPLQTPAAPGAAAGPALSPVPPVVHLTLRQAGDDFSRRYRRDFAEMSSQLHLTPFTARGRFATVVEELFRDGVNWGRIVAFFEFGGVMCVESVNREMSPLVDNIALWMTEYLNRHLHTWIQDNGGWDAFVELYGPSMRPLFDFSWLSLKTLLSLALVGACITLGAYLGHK
Sequence of Bcl-xL (Q07817 whole entry): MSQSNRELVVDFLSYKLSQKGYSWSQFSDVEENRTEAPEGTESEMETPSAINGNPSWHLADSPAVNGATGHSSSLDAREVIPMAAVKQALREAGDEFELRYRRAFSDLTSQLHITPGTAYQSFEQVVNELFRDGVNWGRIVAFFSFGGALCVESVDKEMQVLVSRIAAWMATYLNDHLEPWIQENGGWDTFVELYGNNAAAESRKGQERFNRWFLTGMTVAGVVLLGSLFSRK

SMILES | Bcl-XL binding affinity Ki (Bcl-xL) | Ki (Bcl-2) [nM] | IC50 ([1]; Homo sapiens) [nM] | IC50 [1] [nM]
CC(O)C1C(CO)ON(Cc2cccc(C(=O)NC(Cc3ccccc3)CN(C)C)c2)C1C(=O)NC1CC2CC(C1C)C2(C)C (stereo not drawn) [Compound 507] | ♯ | < 800 | > 5000 | –
C[C@@H]1[C@@H](NC(=O)[C@@H]2C([C@H](C)O)[C@H](CO)ON2Cc2cccc(CN(Cc3ccccc3)[C@@H]3CCN(C)C3)c2)C[C@H]2C[C@@H]1C2(C)C (stereo partly drawn) [Compound 432] | ♯ | < 800 | < 2000 | –
CCOc1cccc(CN(CCN(C)C)Cc2cccc(CN3OC(CO)C(C(C)O)C3C(=O)NC3CC4CC(C3C)C4(C)C)c2)c1 (stereo not drawn) [Compound 383] | ♯ | < 800 | 2000 to 5000 | –
CC(O)C1C(CO)ON(Cc2cccc(CN(CCN(C)C)Cc3cccc(F)c3)c2)C1C(=O)NC1CC2CC(C1C)C2(C)C (stereo not drawn) [Compound 356] | ♯ | < 800 | > 5000 | –
CC(O)C1C(CO)ON(Cc2cccc(CN(CCN(C)C)Cc3cc4ccccc4o3)c2)C1C(=O)NC1CC2CC(C1C)C2(C)C (stereo not drawn) [Compound 384] | ♯ | < 800 | 2000 to 5000 | –
CC(C)CC(CN(C)C)N(Cc1cccc(CN2OC(CO)C(C(C)O)C2C(=O)NC2CC3CC(C2C)C3(C)C)c1)Cc1cccc(C(F)(F)F)c1 (stereo not drawn) [Compound 326] | ♯ | < 800 | 2000 to 5000 | –
COc1ccccc1CN(CCN(C)C)Cc1cccc(CN2OC(CO)C(C(C)O)C2C(=O)NC2CC3CC(C2C)C3(C)C)c1 (stereo not drawn) [Compound 351] | ♯ | < 800 | 2000 to 5000 | –
CC(O)C1C(CO)ON(Cc2cccc(CN(Cc3ccccc3)C(CC3CCCCC3)CN(C)C)c2)C1C(=O)NC1CC2CC(C1C)C2(C)C (stereo not drawn) [Compound 437] | ♯ | < 800 | > 5000 | –
CC(O)C1C(CO)ON(Cc2cccc(CNCC3CCCN3C(=O)OCc3ccccc3)c2)C1C(=O)NC1CC2CC(C1C)C2(C)C (stereo not drawn) [Compound 474] | ♯ | < 800 | 2000 to 5000 | –
CC(C)CC(CN(C)C)N(Cc1cccc(CN2OC(CO)C(C(C)O)C2C(=O)NC2CC3CC(C2C)C3(C)C)c1)Cc1ccc(F)cc1C(F)(F)F (stereo not drawn) [Compound 323] | ♯ | < 800 | > 5000 | –
C[C@@H]1[C@@H](NC(=O)[C@@H]2C([C@H](C)O)[C@H](CO)ON2Cc2cccc(CN(Cc3ccccc3)[C@@H](CCc3ccccc3)CN(C)C)c2)C[C@H]2C[C@@H]1C2(C)C (stereo partly drawn) [Compound 420] | ♯ | < 800 | < 2000 | –
CC(C)C(CN(C)C)NC(=O)c1cccc(CN2OC(CO)C(C(C)O)C2C(=O)NC2CC3CC(C2C)C3(C)C)c1 (stereo not drawn) [Compound 502] | ♯ | < 800 | > 5000 | –
C[C@@H]1[C@@H](NC(=O)[C@@H]2[C@H]([C@H](C)O)[C@H](CO)ON2Cc2cccc(NC(=O)N[C@H](CC3CCCCC3)CN(C)C)c2)C[C@H]2C[C@@H]1C2(C)C [Compound 574] | ♯ | < 800 | 2000 to 5000 | –
CC(O)C1C(CO)ON(Cc2cccc(NC(=O)NC(CCc3ccccc3)CN(C)C)c2)C1C(=O)NC1CC2CC(C1C)C2(C)C (stereo not drawn) [Compound 572] | ♯ | < 800 | 2000 to 5000 | –
COc1c(CN2O[C@@H](CO)[C@@H]([C@H](C)O)[C@H]2C(=O)N[C@H]2C[C@H]3C[C@@H]([C@@H]2C)C3(C)C)cccc1-c1cccc(C(=O)N[C@H](CCc2ccccc2)CN(C)C)c1 [Compound 482] | ♯ | < 800 | < 2000 | –
CC(O)C1C(CO)ON(Cc2cccc(CN3CCN(C)C(c4ccccc4)C3)c2)C1C(=O)NC1CC2CC(C1C)C2(C)C (stereo not drawn) [Compound 456] | ♯ | < 800 | > 5000 | –
C[C@@H]1[C@@H](NC(=O)[C@@H]2[C@H]([C@H](C)O)[C@H](CO)ON2Cc2cccc(NC(=O)N[C@@H](CC3CCCCC3)CN(C)C)c2)C[C@H]2C[C@@H]1C2(C)C [Compound 577] | ♯ | < 800 | 2000 to 5000 | –
CC(O)C1C(CO)ON(Cc2cccc(CN(CCN(C)C)Cc3cccc(Cl)c3)c2)C1C(=O)NC1CC2CC(C1C)C2(C)C (stereo not drawn) [Compound 361] | ♯ | < 800 | 2000 to 5000 | –
CC(O)C1C(CO)ON(Cc2cccc(CN(CCN(C)C)Cc3ccccc3-c3ccccc3)c2)C1C(=O)NC1CC2CC(C1C)C2(C)C (stereo not drawn) [Compound 340] | ♯ | < 800 | 2000 to 5000 | –
CC(O)C1C(CO)ON(Cc2cccc(CN(CCN(C)C)Cc3cccc4ccccc34)c2)C1C(=O)NC1CC2CC(C1C)C2(C)C (stereo not drawn) [Compound 368] | ♯ | < 800 | 2000 to 5000 | –
C[C@@H]1[C@@H](NC(=O)[C@@H]2C([C@H](C)O)[C@H](CO)ON2Cc2cccc(CN3[C@@H](CN(C)C)CC[C@H]3c3ccccc3)c2)C[C@H]2C[C@@H]1C2(C)C (stereo partly drawn) [Compound 448] | ♯ | < 800 | 2000 to 5000 | –
CC(C)C[C@@H](CN(C)C)N(Cc1cccc(CN2O[C@@H](CO)C([C@H](C)O)[C@H]2C(=O)N[C@H]2C[C@H]3C[C@@H]([C@@H]2C)C3(C)C)c1)Cc1c(Cl)cccc1[N+](=O)[O-] (stereo partly drawn) [Compound 322] | ♯ | < 800 | 2000 to 5000 | –
CC(O)C1C(CO)ON(Cc2cccc(CN(CCN(C)C)Cc3cccc(OC(F)(F)F)c3)c2)C1C(=O)NC1CC2CC(C1C)C2(C)C (stereo not drawn) [Compound 367] | ♯ | < 800 | 2000 to 5000 | –
CC(O)C1C(CO)ON(Cc2cccc(CN(CCN(C)C)Cc3ccccc3F)c2)C1C(=O)NC1CC2CC(C1C)C2(C)C (stereo not drawn) [Compound 352] | ♯ | < 800 | 2000 to 5000 | –

Further lines, with some results ahead:

Bcl-XL binding affinity Ki (Bcl-xL) | Ki (Bcl-2) [nM] | SMILES | IC50 ([1]; Homo sapiens) [nM] | IC50 [1] [nM]
♯ | < 800 | CC(O)C1C(CO)ON(Cc2cccc(CN(CCN(C)C)Cc3ccc(-c4ccccc4)cc3)c2)C1C(=O)NC1CC2CC(C1C)C2(C)C (stereo not drawn) [Compound 400] | < 2000 | –
♯ | < 800 | COc1c(CN2O[C@@H](CO)[C@@H]([C@H](C)O)[C@H]2C(=O)N[C@H]2C[C@H]3C[C@@H]([C@@H]2C)C3(C)C)cccc1-c1cccc(C(=O)N[C@@H](Cc2ccccc2)CN(C)C)c1 [Compound 477] | < 2000 | –
♯ | < 800 | CC(C)CC(CN(C)C)N(Cc1ccc(C(F)(F)F)cc1)Cc1cccc(CN2OC(CO)C(C(C)O)C2C(=O)NC2CC3CC(C2C)C3(C)C)c1 (stereo not drawn) [Compound 327] | < 2000 | –
♯ | < 800 | CCc1ccccc1CN(CCN(C)C)Cc1cccc(CN2OC(CO)C(C(C)O)C2C(=O)NC2CC3CC(C2C)C3(C)C)c1 (stereo not drawn) [Compound 349] | < 2000 | –
♯ | < 800 | CC(O)C1C(CO)ON(Cc2cccc(CN(CCN(C)C)Cc3cccc(C(F)(F)F)c3)c2)C1C(=O)NC1CC2CC(C1C)C2(C)C (stereo not drawn) [Compound 398] | > 5000 | –
♯ | < 800 | CC(O)C1C(CO)ON(Cc2cccc(NC(=O)NC(CCc3ccccc3)CN(C)C)c2)C1C(=O)NC1CC2CC(C1C)C2(C)C (stereo not drawn) [Compound 573] | – | 2000 to 5000
♯ | < 800 | C[C@@H]1[C@@H](NC(=O)[C@@H]2[C@H]([C@H](C)O)[C@H](CO)ON2Cc2cccc(NC(=O)N(C)[C@@H](CC3CCCCC3)CN(C)C)c2)C[C@H]2C[C@@H]1C2(C)C [Compound 575] | 2000 to 5000 | –
♯ | < 800 | C[C@@H]1[C@@H](NC(=O)[C@@H]2[C@H]([C@H](C)O)[C@H](CO)ON2Cc2cccc(NC(=O)N[C@@H](Cc3ccccc3)CN(C)C)c2)C[C@H]2C[C@@H]1C2(C)C [Compound 570] | > 5000 | –
♯ | < 800 | CC(O)C1C(CO)ON(Cc2cccc(CN(CCN(C)C)Cc3c(Cl)cccc3Cl)c2)C1C(=O)NC1CC2CC(C1C)C2(C)C (stereo not drawn) [Compound 373] | 2000 to 5000 | –
♯ | < 800 | CC(O)C1C(CO)ON(Cc2cccc(CN(CCN(C)C)Cc3ccc(C(F)(F)F)cc3)c2)C1C(=O)NC1CC2CC(C1C)C2(C)C (stereo not drawn) [Compound 371] | 2000 to 5000 | –
♯ | < 800 | Cc1ccc(CN(CCN(C)C)Cc2cccc(CN3OC(CO)C(C(C)O)C3C(=O)NC3CC4CC(C3C)C4(C)C)c2)cc1 (stereo not drawn) [Compound 386] | 2000 to 5000 | –
♯ | < 800 | CC(O)C1C(CO)ON(Cc2cccc(CN(CCN(C)C)Cc3ccccc3C#N)c2)C1C(=O)NC1CC2CC(C1C)C2(C)C (stereo not drawn) [Compound 369] | 2000 to 5000 | –
♯ | < 800 | CC(O)C1C(CO)ON(Cc2cccc(CN(CCN(C)C)Cc3cccc(O)c3)c2)C1C(=O)NC1CC2CC(C1C)C2(C)C (stereo not drawn) [Compound 378] | 2000 to 5000 | –
♯ | < 800 | CC(O)C1C(CO)ON(Cc2cccc(CN3c4ccccc4CC3CN(C)C)c2)C1C(=O)NC1CC2CC(C1C)C2(C)C (stereo not drawn) [Compound 465] | > 5000 | –

From patent US7851637B2, “Compounds and methods for inhibiting the interaction of BCL proteins with binding partners” (Infinity Pharmaceuticals, Inc., priority 2004, dated 2010)
